In US8722659B2, “Quinazolinedione derivatives, preparation thereof and various therapeutic uses thereof” (Sanofi, priority 2009, dated 2014):

Assays:
Human PDE7 = target: T1, Human PDE7 (Homo sapiens, UniProt Q13946); assay: PDE7 enzymatic test ([3H]-cAMP hydrolysis, TLC on PEI cellulose); type: biochemical; settings: human PDE7 partially purified from HUT-78; cAMP concentration about 4 times the Km; 10 μM rolipram present
T1 construct: Human PDE7 was partially purified from the cell line HUT-78; endogenous in cells; host or cells: HUT-78 (human T-cell line), partially purified enzyme preparation
Method: (§1) The capacity of the compounds of formula (I) to inhibit PDE7 is measured by means of an enzymatic test based on separating radioactive cAMP (substrate of PDE7) from radioactive 5′-AMP (product of the enzymatic reaction) by thin-layer chromatography on polyethyleneimine (PEI) cellulose, after stopping the enzymatic reaction. The 5′-AMP is quantitatively extracted from the PEI cellulose and its radioactivity is measured using a liquid scintillation counter.
The inhibitory activity of the compounds of formula (I) on PDE7 is represented by the inhibition constant IC50, defined as the concentration of test compound (inhibitor) in the trial that can reduce the enzymatic activity of PDE7 by 50%. The lower the IC50 values, the greater the inhibitory power of the compounds.
Human PDE7 was partially purified from the cell line HUT-78 by following a method similar to that described by Bloom and Beavo (Proc. Natl. Acad. Sci. USA, (1996) 93, 14188-14192). The enzyme preparation obtained is stored at −80° C. in a buffer containing 20 mM of Tris-HCl (pH 7.0), 5 mM of MgCl2, 4 mM of EDTA, 1 mM of dithiothreitol and 20% glycerol. […] The Michaelis constant (Km) of PDE7 for cAMP, measured using the radiochemical test described hereinbelow, is 21 nM.
The compounds of formula (I) to be tested as PDE7 inhibitors are dissolved in DMSO to a concentration of 10 mM. These solutions are then serially diluted in DMSO to obtain solutions of desired concentrations. These solutions are then diluted 20-fold in the test buffer to give solutions containing 5% DMSO. These solutions are finally diluted 5-fold in the enzymatic test.
The test is performed in 1.5-ml Eppendorf tubes containing 40 mM of Tris-HCl (pH 7.5), 15 mM of MgCl2, 1 mM of EGTA, 0.5 mg/ml of bovine serum albumin, 0.25 μCi of [^3H]-cAMP (corresponding to a cAMP concentration of between 60 and 100 nM), 10 μM of rolipram and PDE7 in a final volume of 100 μl. The test is performed in the absence (control sample) or in the presence (treated sample) of compounds tested as PDE7 inhibitors. The final concentration of DMSO in the test is […]. The reaction is initiated by adding enzyme and the samples are maintained at room temperature for 30 minutes. The enzymatic dilution is adjusted so as to obtain a degree of conversion of 10% to 15%. The enzymatic reaction is stopped by immersing the stoppered Eppendorf tubes in a water bath at 100° C. for 3 minutes. Blanks (reaction stopped immediately after adding the enzyme) are included in each experiment. The samples are then centrifuged at 10 000×g for 1 minute and a 10 μl aliquot portion of the supernatant is deposited 2 cm from the bottom edge of a sheet of PEI cellulose onto which 10 μg of cAMP and 10 μg of 5′-AMP have previously been deposited. To facilitate the migration and the subsequent cutting of the PEI cellulose strips containing the 5′-AMP, 18 migration paths 1 cm wide are delimited per plate by scraping the cellulose with a spatula over a width of 1 mm. The plates are developed over their entire length with a 0.30 M solution of LiCl in water by ascending chromatography. The 5′-AMP (Rf=0.20) and the cAMP (Rf=0.47) are visualized under UV light at 254 nm. The PEI cellulose bands containing the 5′-AMP are cut out and the nucleotide is extracted quantitatively into counting flasks with 2 ml of a solution containing 16 M of formic acid and 2 M of ammonium formate in water (rotary stirring for 15 minutes). After adding 10 ml of scintillation liquid (OptiPhase HiSafe 3 from Perkin-Elmer/Wallac), the radioactivity is counted using a liquid scintillation counter (Perkin-Elmer/Wallac model 1414). Each test is performed in duplicate. The radioactivity specifically associated with the 5′-AMP formed in the enzymatic reaction is obtained by subtracting the mean value of the blanks from the mean value of the controls (or of the treated samples). […]

CLL-PBMCs = settings: PBMC of chronic lymphocytic leukaemia patients; cited from earlier work
[1] = tested on: PBMCs of normal individuals; settings: cited from earlier work
PDE8 = PDE8 enzymatic test equivalent to that described for PDE7; type: biochemical; settings: at 0.1 μM
Method: as §1
The test is performed in 1.5-ml Eppendorf tubes containing 40 mM of Tris-HCl (pH 7.5), 15 mM of MgCl2, 1 mM of EGTA, 0.5 mg/ml of bovine serum albumin, 0.25 μCi of [^3H]-cAMP (corresponding to a cAMP concentration of between 60 and 100 nM), 10 μM of rolipram and PDE7 in a final volume of 100 μl. The test is performed in the absence (control sample) or in the presence (treated sample) of compounds tested as PDE7 inhibitors. The final concentration of DMSO in the test is 2%. […] The PEI cellulose bands containing the 5′-AMP are cut out and the nucleotide is extracted quantitatively into counting flasks with 2 ml of a solution containing 16 M of formic acid and 2 M of ammonium formate in water (rotary stirring for 15 minutes). After adding 10 ml of scintillation liquid (OptiPhase HiSafe 3 from Perkin-Elmer/Wallac), the radioactivity is counted using a liquid scintillation counter (Perkin-Elmer/Wallac model 1414). […]

T1 sequence (Q13946 whole entry): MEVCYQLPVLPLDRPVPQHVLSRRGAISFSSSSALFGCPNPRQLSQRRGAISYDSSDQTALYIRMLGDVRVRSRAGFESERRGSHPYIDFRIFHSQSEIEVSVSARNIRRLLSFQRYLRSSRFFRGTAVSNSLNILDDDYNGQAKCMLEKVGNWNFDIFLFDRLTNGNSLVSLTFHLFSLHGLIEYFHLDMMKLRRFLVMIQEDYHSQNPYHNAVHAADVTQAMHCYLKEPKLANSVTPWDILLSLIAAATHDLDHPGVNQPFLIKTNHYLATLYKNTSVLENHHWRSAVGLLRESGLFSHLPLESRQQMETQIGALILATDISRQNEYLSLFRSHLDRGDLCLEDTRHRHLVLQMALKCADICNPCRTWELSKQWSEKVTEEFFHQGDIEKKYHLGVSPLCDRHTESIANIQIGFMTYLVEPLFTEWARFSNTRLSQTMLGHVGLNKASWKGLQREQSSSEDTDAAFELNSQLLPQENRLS

IC50 (Human PDE7) [µM]	SMILES	other results
0.0061	COc1ccc(Cn2c(=O)c3cc(OCC#N)ccc3n(C3CC[S+]([O-])CC3)c2=O)cc1OC (single isomer, unassigned; isomer 1) [Compound 17, {[3-(3,4-dimethoxybenzyl)-1-(1-oxidotetrahydro-2H-thiopyran-4-yl)-2,4-dioxo-1,2,3,4-tetrahydroquinazolin-6-yl]oxy}acetonitrile (isomer 1)]	–
–	Cc1ccc([N+](=O)[O-])cc1S(=O)(=O)N(C)C [BRL-50481]	apoptosis of CLL-PBMCs (CLL-PBMCs): induces dose-dependent apoptosis; effect on the PBMCs of normal individuals [1]: no effect
0.0089	COc1ccc(Cn2c(=O)c3cc(OCC#N)ccc3n(C3CCOCC3)c2=O)cc1OC [Compound 2, {[3-(3,4-dimethoxybenzyl)-2,4-dioxo-1-(tetrahydro-2H-pyran-4-yl)-1,2,3,4-tetrahydroquinazolin-6-yl]oxy}acetonitrile]	–
0.016	COc1ccc(Cn2c(=O)c3cc(OCC#N)ccc3n(C3CCOCC3)c2=O)cn1 [Compound 9, ({3-[(6-methoxypyridin-3-yl)methyl]-2,4-dioxo-1-(tetrahydro-2H-pyran-4-yl)-1,2,3,4-tetrahydroquinazolin-6-yl}oxy)acetonitrile]	–
0.0055	COc1ccc(Cn2c(=O)c3cc(OCC#N)ccc3n(C3CCSCC3)c2=O)cc1OC [Compound 11, {[3-(3,4-dimethoxybenzyl)-2,4-dioxo-1-(tetrahydro-2H-thiopyran-4-yl)-1,2,3,4-tetrahydroquinazolin-6-yl]oxy}acetonitrile]	–
0.23	COc1ccc(Cn2c(=O)c3cc(OCC#N)ccc3n(C3CCS(=O)(=O)CC3)c2=O)cc1OC [Compound 14, {[3-(3,4-dimethoxybenzyl)-1-(1,1-dioxidotetrahydro-2H-thiopyran-4-yl)-2,4-dioxo-1,2,3,4-tetrahydroquinazolin-6-yl]oxy}acetonitrile]	–
0.061	COc1ccc(Cn2c(=O)c3cc(CO)ccc3n(C3CCOCC3)c2=O)cc1OC [Compound 45, 3-(3,4-dimethoxybenzyl)-6-(hydroxymethyl)-1-(tetrahydro-2H-pyran-4-yl)-quinazoline-2,4(1H,3H)-dione]	–
0.012	COc1ccc(Cn2c(=O)c3cc(CF)ccc3n(C3CCOCC3)c2=O)cc1OC [Compound 60, 3-(3,4-dimethoxybenzyl)-6-(fluoromethyl)-1-(tetrahydro-2H-pyran-4-yl)-quinazoline-2,4(1H,3H)-dione]	–
–	COc1cc(Cn2c(=O)c3cc(OC(CF)CF)c(F)cc3n(C3CCOCC3)c2=O)ccc1OCc1ccccc1 [Compound 64, 3-[4-(benzyloxy)-3-methoxybenzyl]-6-[(1,3-difluoropropan-2-yl)oxy]-7-fluoro-1-(tetrahydro-2H-pyran-4-yl)quinazoline-2,4(1H,3H)-dione]	inhibition of PDE8 (PDE8): 59%
